Data: PMC7022378, “Structural Analyses on the Deamidation of N-Terminal Asn in the Human N-Degron Pathway” (Biomolecules, 2020)
Numbering of substitutions follows the chain as printed. Blank lines part the entries; values can stand above or below the molecule they belong to.

How the values were obtained:
[1] = target: T1, NTAN1 (wild-type) (Homo sapiens, UniProt Q96AB6); test: In vitro deamidation assay quantified by LC-MS, wild-type NTAN1; type: biochemical; conditions: 200 mM NaCl, 10 mM HEPES-NaOH (pH 7.0); for Deamidation activity on NXAAR peptides: 100 μM peptide, 37 °C, 1-20 min, three independent experiments; for Deamidation with 0.16 μM NTAN1: 0.16 μM NTAN1, 37 °C
T1 construct: The gene for full-length NTAN1 was cloned into pET-21a(+); made in house; host or cells: E. coli Rosetta 2(DE3)
T1 sequence (Q96AB6 1-310): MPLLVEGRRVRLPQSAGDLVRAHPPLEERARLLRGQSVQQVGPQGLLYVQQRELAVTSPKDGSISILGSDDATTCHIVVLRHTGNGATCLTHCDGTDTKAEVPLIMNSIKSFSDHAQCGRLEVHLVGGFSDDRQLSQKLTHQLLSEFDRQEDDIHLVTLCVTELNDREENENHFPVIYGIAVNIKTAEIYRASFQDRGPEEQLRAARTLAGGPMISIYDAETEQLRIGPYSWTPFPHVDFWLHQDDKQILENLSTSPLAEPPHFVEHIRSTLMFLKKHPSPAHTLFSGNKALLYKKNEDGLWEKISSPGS
Experimental: We synthesized codon-optimized NTAN1 gene of which sequence information was provided by Georgiou et al. for protein expression in Escherichia coli. The gene for full-length NTAN1 was cloned into pET-21a(+) (Novagen, Darmstadt, Germany) between Nde1 and Xho1 restriction sites to have C-terminal hexahistidine tag. NTAN1 was overexpressed in the Rosetta 2(DE3), E. coli strain (Novagen, Darmstadt, Germany). The transformed cells were grown in Luria-Bertani media containing ampicillin at 37 °C until the optical density at 600 nm reached 0.5 and protein expression was induced by 0.5 mM isopropyl β-D-1-thiogalactopyranoside. The cells were shake-incubated for additional for 16 h at 18 °C and harvested by centrifugation at 6000 × g for 10 min (Figure S1). The harvested cells were resuspended in a buffer containing 500 mM NaCl, 20 mM Tris-HCl (pH 7.5), 35 mM imidazole, and 1 mM phenylmethylsulfonyl fluoride and subsequently lysed by sonication. Lysed cells were centrifuged at 35,000 × g for 1 h. The resultant supernatant was filtered with 0.45 μm filter device (Sartorius, Göttingen, Germany) and loaded onto a 5-mL HiTrap Chelating HP column (GE Healthcare, Chicago, IL, USA) which had been pre-charged with Ni^2+ and equilibrated with a buffer containing 500 mM NaCl, 20 mM Tris-HCl (pH 7.5), and 35 mM imidazole. After nonspecifically bound proteins were eluted, the retained proteins were eluted by addition of an increasing gradient of a buffer containing 500 mM NaCl, 20 mM Tris-HCl (pH 7.5), and 1 M imidazole. The proteins were loaded onto a HiPrep Desalting 26/10 column (GE Healthcare, Chicago, IL, USA) and eluted with a buffer containing 50 mM NaCl and 20 mM Tris-HCl (pH 7.5) The eluates were loaded onto a HiTrap 5-mL Q HP column (GE Healthcare, Chicago, IL, USA) which had been equilibrated with a buffer containing 50 mM NaCl and 20 mM Tris-HCl (pH 7.5). After nonspecifically bound proteins were eluted, the retained proteins were eluted with addition of increasing gradient of a buffer containing 1 M NaCl and 20 mM Tris-HCl (pH 7.5). Finally, the proteins were concentrated, loaded onto a HiLoad 16/600 Superdex 200 pg column (GE Healthcare, Chicago, IL, USA), and eluted with a buffer containing 200 mM NaCl and 10 mM HEPES-NaOH (pH 7.0). Purity of the protein fractions was checked by sodium dodecyl sulfate-polyacrylamide gel electrophoresis after each purification step.
Peptides with Nt-Asn which mimic potential substrates of NTAN1 were synthesized: NRA, NRAA, NRAAA, NRQVA, NRQVAA, NRQVAAA, NFAAR, NLAAR, NRAAR, NAAAR, NNAAR, NPAAR, NGAAR, and NDAAR. Non-Nt-Asn peptides, QRAAA and VRAAA, were also synthesized. NTAN1 (at concentrations of 0.5 μM, 0.16 μM, or 0.04 μM) and the peptides (at a concentration of 100 μM) were mixed and incubated at 37 °C in a buffer containing 200 mM NaCl and 10 mM HEPES-NaOH (pH 7.0). The reactants sampled at various incubation time points (of 1, 2, 5, 10, and 20 min) were heat-inactivated at 95 °C for 10 min to stop further reaction. Subsequently, the samples were centrifuged at 20,000 × g and diluted 1/50 times with double-deionized water (DW) for liquid chromatography-mass spectrometry (LC-MS) analysis. The deamidation coefficient of peptides catalyzed by NTAN1 was assessed by the slope of exponential curve drawn from the concentration of the substrate over incubation time.
The peptides were quantified by an LC-MS system (1260 Infinity/6430 Triple Quad, Agilent Technologies) equipped with a binary pump (G1312B), a thermostated column compartment (G1316C), a thermostat (G1330B), and an autosampler (G1367E). Chromatographic separation was carried out by injecting an aliquot (2 µL) of analytical sample into a Kinetex C18 column (2.6 μm, 100 Å, 100 × 4.6 mm; Phenomenex, Torrance, CA, USA) with a C18 guard column (4 × 2.0 mm; Phenomenex, Torrance, CA, USA). The mobile phase consisted of acetonitrile and DW (30:70, v/v) with 0.2% (v/v) formic acid. […]

[2] = target: T2, NTAN1 S254A mutant (human) (UniProt Q96AB6)
T2 sequence: T1 sequence (Q96AB6 1-310) with S254A

[3] = target: T3, N-terminal asparagine amidohydrolase 1 (NTAN1) C75S mutant (human, UniProt Q96AB6 1-310, C75S); test: SPR; NTAN1 C75S amine-coupled to a CM5 chip (3000 RU), Biacore T200; peptides at 1.95-62.50 μM injected for 120 s, 30 μL/min; 150 mM NaCl, 10 mM HEPES-NaOH pH 7.2, 0.1 mM TCEP, 0.001% polysorbate 20; 1:1 Langmuir model; conditions: both partners purified
T3 construct: N-terminal asparagine amidohydrolase 1 (NTAN1), human, full length, 310 residues; codon-optimized synthetic gene in pET-21a(+); catalytic Cys75 changed to Ser; C75S is not in the list of mutants in section 2.2; No step that cleaves the tag is described; source: E. coli Rosetta 2(DE3), purified as for NTAN1 (Ni2+ chelating, Q anion exchange, Superdex 200)
T3 sequence (looked up): T1 sequence (Q96AB6 1-310) with C75S

[4] = target: T3, N-terminal asparagine amidohydrolase 1 …; test: crystal structure; crystals of NTAN1 C75S soaked in reservoir solution with 10 mM synthetic peptide for 16 hr; two molecules in the asymmetric unit; conditions: both partners purified
[5] = 0.5 μM NTAN1 (Figure 2d; NNAAR also at 0.04 μM, Figure 2c)

Deamidation activity on NXAAR peptides [1, 5]: low deamidation activities
Molecule: NDAAR [NXAAR substrate peptide, second-position Asp]

Deamidation activity on NXAAR peptides ([1]; 0.04 μM NTAN1 (Figure 2c)): most efficiently deamidated
Molecule: NFAAR [NXAAR substrate pentapeptide, second-position Phe]

Deamidation activity on NXAAR peptides [1, 5]: low deamidation activities
Molecule: NGAAR [NXAAR substrate peptide, second-position Gly]

Deamidation activity on NXAAR peptides ([1]; 0.04 μM NTAN1 (Figure 2c)): most efficiently deamidated
Molecule: NLAAR [NXAAR substrate pentapeptide, second-position Leu]

Deamidation activity on NXAAR peptides [1, 5]: low deamidation activities
Molecule: NNAAR [NXAAR substrate peptide, second-position Asn]

Deamidation activity on NXAAR peptides [1, 5]: low deamidation activities
Molecule: NPAAR [NXAAR substrate peptide, second-position Pro]

Deamidation activity on NXAAR peptides ([1]; 0.04 μM NTAN1 (Figure 2c)): moderate deamidation activity
Molecule: NRAAR [NXAAR substrate peptide, second-position Arg]

Deamidation with 0.16 μM NTAN1 [1]: deamidated too rapidly
Molecule: NRQVA [synthesized modified Nt-Asn peptide, model substrate of NTAN1]

Deamidation with 0.16 μM NTAN1 [1]: deamidated too rapidly
Molecule: NRQVAA [synthesized modified Nt-Asn peptide, model substrate of NTAN1]

Deamidation with 0.16 μM NTAN1 [1]: deamidated too rapidly
Molecule: NRQVAAA [synthesized modified Nt-Asn peptide, model substrate of NTAN1]

in vitro deamidation of the NRAAA peptide, LC-MS, deamidation rate against wild-type NTAN1 (fold lower than wild type) [2]: 3
Molecule: NRAAA [NRAAA peptide]

Kd [3]: 26.8 nM
B1: NLAAR peptide (peptide)
peptide: NLAAR
notes: model substrate peptide with N-terminal Asn; also called NLAAR pentapeptide; source: synthetic peptide

binding result [4]: binds
B2: NFAAR peptide (peptide)
peptide: NFAAR
notes: model substrate peptide with N-terminal Asn; also called NFAAR pentapeptide; source: synthetic peptide

Kd [3]: 4670 nM
B3: NAAAR peptide (peptide)
peptide: NAAAR
notes: model substrate peptide with N-terminal Asn; source: synthetic peptide
